# Reference: patent publication US12590953B2, “Methods for screening cereblon modifying compounds” (CELGENE CORPORATION, priority 2018, dated 2026)
# “Also recorded” adds a separate entry of the source.
# What was measured:
# [1] = system: SALL4 binding to cereblon; test: Co-immunoprecipitation of CRBN and SALL4 variants in lenti-X-293 cells expressing GST-CRBN; format: cell-based, human; conditions: 40 μM thalidomide, 8 hours, 1 μM MLN4924
# Procedure: All cells were treated with 1 μM MLN4924, and either 40 μM thalidomide (+) or DMSO vehicle control (−) as indicated for 8 hours (n=2 biological replicates).
# Lenti-X-293 cells were cotransfected with pDEST27-CRBN, which encodes GST-CRBN, and pLOC empty vector (Thermo Fisher), which contains a blasticidin resistant gene. Two days after transfection, cells were trypsinized and seeded into 96-well plates through limiting dilution. After selectin with blasticidin (20 μg/mL) for 2 weeks, single clones were picked, expanded and screened for overexpression of GST-CRBN via immunoblot analysis with anti-CRBN65 antibody. Next, lenti-X-293 cells stably expressing GST-CRBN Human were infected with lentiviruses expressing SALL4 wild-type and variants to generate lenti-x-293 cells stably expressing GST-CRBN and SALL4. Then, cells were treated with DMSO or 40 μM thalidomide for 8 hours in the presence of 1 μM MLN4924, and lysed in Buffer B [50 mM Tris (pH 7.4), 150 mM NaCl, 0.5% NP-40, 10% glycerol, 1× Complete Ultra protease inhibitor (Roche), and 1× PhosphoSTOP (Roche)]. […] After washing the anti-HA resin with Buffer B for 6 times, anti-HA immunoprecipitates were eluted by boiling in 2×LDS loading buffer at 90° C. for 5 minutes, and then subjected to immunoblot analysis.
# ZFP91 = ZFP91 immunohistochemistry in rabbit testis; format: in vivo; conditions: treated male rabbits (150 mg/kg)
# Procedure: Male New Zealand white rabbits were treated with vehicle (1% Carboxymethylcellulose in deionized water), or Thalidomide at either 30 or 150 mg/kg/day for 56 days to investigate testicular degeneration. Testis were collected 24 hours after the last dose, fixed in 10% NBF, processed, embedded in paraffin and sectioned at 4 microns for immunohistochemistry.
# Rabbit embryos were stained for SALL4, and mouse testis were stained for SALL4 and ZFP91. Immunohistochemistry (IHC) was performed on the Bond-III automated slide stainer (Leica Microsystems, Buffalo Grove, Ill.) using the Bond Polymer Refine Detection system (Leica Microsystems, DS9800). Formalin fixed paraffin embedded (FFPE) tissues were sectioned at four micron thick and deparaffinized on the Bond-Max instrument. Antigen retrieval was performed with Epitope Retrieval 2 (ER2, pH 9.0) for 20 min at 100° C. The slides were blocked for endogenous peroxidase activity with Peroxide Block for 5 minutes at room temperature. Sections were then incubated with the mouse monoclonal anti-SALL4 EE-30 antibody (Santa Cruz, sc-101147) at a 1:100 dilution for 60 min at room temperature, or with the rabbit monoclonal anti-ZFP91 antibody (Celgene custom clone 122-8-6) at 0.25 ug/ml. […]
# [2] = system: ZFP91 cereblon-binding zinc finger (a.a. 395-423) / rabbit cereblon; test: In vitro ubiquitination of ZFP91 zinc finger by rabbit cereblon; format: biochemical; conditions: with thalidomide
# Procedure: Glycine degron-containing zinc fingers are highlighted with stars. […] Ubiquitination reactions were separated by SDS-PAGE followed by anti-MBP western blot. […] Results in panels b and c are representative of 3 independent experiments.
# Full length human cereblon, full length mouse cereblon, and full length rabbit cereblon were co-expressed with full length human DDB1 in SF9 insect cells in ESF921 medium in the presence of 50 uM zinc acetate. Cells were resuspended in buffer containing 50 mM Tris-HCl pH 7.5, 500 mM NaCl, 10 mM imidazole, 10% glycerol, 2 mM TCEP, 1× Protease Inhibitor Cocktail (San Diego Bioscience), and 40,000 U Benzonase (Novagen), and sonicated for 30 s. Lysate was clarified by high speed spin at 30,000 rpm for 30 minutes, and clarified lysate was incubated with Ni-NTA affinity resin (Qiagen) for 1 hour. Complex was eluted with buffer containing 500 mM imidazole, and the ZZ-domain-6×His tag removed by thrombin cleavage (Enzyme Research) overnight, combined with dialysis in 10 mM imidazole buffer. Cleaved eluate was incubated with Ni-NTA affinity resin (Qiagen), and the flow-through diluted to 200 mM NaCl for further purification over a Sephacryl S-400 16/60 column (GE Healthcare) in buffer containing 10 mM HEPES pH 7.0, 240 mM NaCl, and 3 mM TECP. […]
smiles,measurement,setting,value
O=C1CCC(N2C(=O)c3ccccc3C2=O)C(=O)N1 (centres unmarked) [thalidomide],Binding of G416A SALL4 to cereblon (co-IP),[1],disrupted cereblon binding in cells
same,Binding of G600A SALL4 to cereblon (co-IP),[1],able to bind cereblon
same,Binding of wild-type SALL4 to cereblon (co-IP),[1],able to bind cereblon
same,ZFP91 protein levels in testis,ZFP91,correspondingly depleted; also recorded: caused degradation of both ZFP91 and SALL4
same,Ubiquitination of ZFP91 zinc finger (a.a. 395-423) by rabbit cereblon,[2],efficiently ubiquitinated by human and rabbit cereblon
